Experimental data from ChEMBL document CHEMBL5244217, “β-Carboline alkaloid monomers and dimers: Occurrence, structural diversity, and biological activities” (Eur J Med Chem, 2018).
pEC50, pIC50: −log10 of the molar value. Converted amounts (≈) assume the structure as drawn.

How the values were obtained:
Micrococcus luteus = experiment: Antibacterial activity against Sarcina lutea; type: functional
MDA-MB-231 = experiment: Cytotoxicity against human MDA-MB-231 cells; type: functional, cell-based
KB = experiment: Cytotoxicity against human KB cells; type: functional; conditions: read-out: ED50 (the source's name)
[1] = test system: Trypanosoma brucei brucei; experiment: Antitrypanosomal activity against Trypanosoma brucei brucei; type: functional, organism-based
Plasmodium falciparum [2] = experiment: Antimalarial activity against Plasmodium falciparum; type: functional, organism-based
[3] = test system: Human immunodeficiency virus 1; experiment: Antiviral activity against HIV1; type: functional, organism-based
Alpha-glucosidase = Alpha-glucosidase (Saccharomyces cerevisiae S288c, UniProt P53341+P38158+P07265); experiment: Inhibition of Saccharomyces cerevisiae alpha-glucosidase activity using pNPG as substrate; type: protein assay
dengue virus type 2 = experiment: Antiviral activity against DENV-2 strain New Guinea C infected in Vero cells assessed as reduction in virus yield measured after 48 hrs; type: functional, organism-based
Mycolicibacterium phlei = experiment: Antibacterial activity against Mycolicibacterium phlei ATCC 11758; type: functional
[4] = test system: Mycolicibacterium smegmatis; experiment: Antibacterial activity against Mycobacterium smegmatis ATCC 14468; type: functional
Staphylococcus aureus [5] = experiment: Antibacterial activity against Staphylococcus aureus EMRSA-15; type: functional
Staphylococcus aureus [6] = experiment: Antibacterial activity against Staphylococcus aureus XU212; type: functional
[7] = test system: Mycolicibacterium smegmatis; experiment: Antibacterial activity against Mycolicibacterium smegmatis MC2 2700; type: functional
[8] = test system: Mycolicibacterium fortuitum; experiment: Antibacterial activity against Mycobacterium fortuitum ATCC 6841; type: functional
Staphylococcus aureus [9] = experiment: Antibacterial activity against Staphylococcus aureus 1199B; type: functional
Bacillus subtilis = experiment: Antibacterial activity against Bacillus subtilis; type: functional
Corynebacterium xerosis = experiment: Antibacterial activity against Corynebacterium xerosis; type: functional
[10] = Selectivity index, ratio of IC50 for cytotoxicity against rat L6 cells to IC50 for Antimalarial activity against Plasmodium falciparum K1 strain; type: toxicity, cell-based; conditions: read-out: Selectivity Index
Plasmodium falciparum [11] = experiment: Antimalarial activity against Plasmodium falciparum K1 strain; type: functional, organism-based
HL-60 = experiment: Cytotoxicity against human HL-60 cells; type: functional, cell-based
[12] = test system: Human immunodeficiency virus 1; experiment: Antiviral activity against HIV1 IIIB infected in human C8166 cells assessed as reduction in virus-induced cytopathic effect measured after 3 days by Syncytia assays; type: functional, organism-based; conditions: Human immunodeficiency virus 1, IIIB, C8166, 72 h
Cryptococcus neoformans = experiment: Antimicrobial activity against Cryptococcus neoformans; type: functional
Staphylococcus aureus [13] = experiment: Antimicrobial activity against Staphylococcus aureus; type: functional
Candida albicans = experiment: Antimicrobial activity against Candida albicans; type: functional

With Oc1cccc2c1[nH]c1c(C3=C[C@@]4(O)CC/C=C\CCCCN5CC[C@@H]3[C@]3(C[C@@H]6/C=C\CCCCN6[C@H]34)C5)nccc12 the MIC (Micrococcus luteus) was 0.91 µg/mL (≈ 1.61 µM).
CC(C)CC(N)c1nccc2c1[nH]c1cc(Br)ccc12 (centres undefined) [EUDISTALBIN A] gave a pIC50 (MDA-MB-231) of 5.68 and an EC50 (KB) of less than 3.2 µg/mL.
Oc1ccc2[nH]c3c(C4=C[C@@]5(O)CC/C=C\CCCCN6CC[C@@H]4[C@]4(C[C@@H]7/C=C\CCCCN7[C@H]45)C6)nccc3c2c1 [MANZAMINE Y] showed an MIC (Micrococcus luteus) of 0.25 µg/mL (≈ 0.443 µM).
For O[C@]12C=C(C3c4[nH]c5ccccc5c4CCN3CCc3nccc4c3[nH]c3ccccc34)[C@@H]3CCN(CCCC/C=C\CC1)C[C@@]31C[C@@H]3/C=C\CCCCN3[C@H]12 (some centres undefined), the IC50 [1] was 0.27 µg/mL (≈ 0.361 µM) and the IC50 (Plasmodium falciparum [2]) was 0.58 µg/mL (≈ 0.776 µM).
Oc1ccc2[nH]c3c(C4=C[C@@]5(O)CC/C=C\CCCCN6CC[C@@H]4[C@@]4(C6)C[C@@]67CCC(CCCN6[C@H]45)O7)nccc3c2c1 showed a pIC50 [3] of 5.64.
In the case of O=C(CO)CCC(=O)c1nc(C(=O)O)cc2c1[nH]c1ccccc12, the IC50 (Alpha-glucosidase) was 63.3 µg/mL (≈ 194 µM).
Work on COc1ccc2c3ccnc(C)c3n(C)c2c1 yielded a pEC50 (dengue virus type 2) of 5.49.
For N=C(N)NCCC[C@H]1NCCc2c1[nH]c1cc(Br)ccc21, the MIC (Mycolicibacterium phlei) was 8 µg/mL (≈ 22.8 µM), the MIC [4] was 16 µg/mL (≈ 45.7 µM) and the MIC (Staphylococcus aureus [5]) was 64 µg/mL (≈ 183 µM). The MIC (Staphylococcus aureus [6]) was 8 µg/mL (≈ 22.8 µM), the MIC [7] was 2 µg/mL (≈ 5.71 µM) and the MIC [8] was 16 µg/mL (≈ 45.7 µM). For the same molecule, the MIC (Staphylococcus aureus [9]) was 16 µg/mL (≈ 45.7 µM).
Molecule O[C@H]1[C@H]2[C@@H]3c4[nH]c5ccccc5c4CCN3CN3CCCC/C=C\CC[C@@]45CN(CCCC/C=C\CC[C@@]1(O)[C@H]34)CC[C@@H]25 has an MIC (Bacillus subtilis) of 2.8 µg/mL (≈ 4.79 µM), an MIC (Micrococcus luteus) of 2.8 µg/mL (≈ 4.79 µM) and an MIC (Corynebacterium xerosis) of 5.7 µg/mL (≈ 9.75 µM).
With C[n+]1ccc2c(c1)[nH]c1ccc(Cl)cc12 [NOSTOCARBOLINE] the selectivity ratio [10] was 2500 and the pIC50 (Plasmodium falciparum [11]) was 7.74.
For COc1ccc2c3c([nH]c2c1)[C@]12CC(C)(C)[C@@]4(C(=O)N1CC3)c1[nH]c3cc(OC)ccc3c1CCN24, the pIC50 (HL-60) was 5.24.
O=c1ccc2nccc3c4ccccc4n1c23 [CANTHIN-6-ONE] gave an MIC (Mycolicibacterium phlei) of 8 µg/mL (≈ 36.3 µM), an MIC [4] of 8 µg/mL (≈ 36.3 µM) and an MIC (Staphylococcus aureus [5]) of 32 µg/mL (≈ 145 µM). It also gave an MIC (Staphylococcus aureus [6]) of 8 µg/mL (≈ 36.3 µM), an MIC [7] of 8 µg/mL (≈ 36.3 µM) and an MIC [8] of 16 µg/mL (≈ 72.7 µM). For the same molecule, the MIC (Staphylococcus aureus [9]) was 8 µg/mL (≈ 36.3 µM).
In the case of Oc1cccc2c3c([nH]c12)C(C1=C[C@@]2(O)CC/C=C\CCCCN4CC[C@@H]1[C@]1(C[C@@H]5/C=C\CCCCN5[C@H]12)C4)=NCC3, the MIC (Micrococcus luteus) was 4 µg/mL (≈ 7.06 µM).
Work on O=C(O)c1cc2c([nH]c3ccccc32)c(-c2ccc(CO)o2)n1 [FLAZINE] yielded a pIC50 [12] of 5.63.
O[C@]12C=C(c3nccc4c3[nH]c3ccccc34)[C@@H]3CCN(CCCC/C=C\CC1)C[C@@]31C[C@@H]3/C=C\CCCCN3[C@H]12 [MANZAMINE A] showed a pIC50 [3] of 5.38.
NC(=O)c1cc2c([nH]c3ccccc32)c(-c2ccc(CO)o2)n1 gave a pEC50 [12] of 6.42.
In the case of CSc1c(C2=C(c3c[nH]c4ccc(O)cc34)C(=O)N3c4ccc(O)cc4C4C=CN=C2C43)n(C)c[n+]1C (centres undefined), the MIC (Cryptococcus neoformans) was 4 µg/mL, the MIC (Staphylococcus aureus [13]) was 4 µg/mL and the MIC (Candida albicans) was 4 µg/mL.
For CSc1c(C2=C(c3c[nH]c4ccc(O)cc34)C(=O)N3c4ccc(O)cc4C4C=C(C(=O)O)N=C2C43)n(C)c[n+]1C (centres undefined), the MIC (Cryptococcus neoformans) was 8 µg/mL, the MIC (Staphylococcus aureus [13]) was 8 µg/mL and the MIC (Candida albicans) was 8 µg/mL.
